Test results reported in patent US5580552A, “7-glycosyloxybenzopyran derivative and antiallergic agent containing the derivative as active ingredient” (priority 1994, dated 1996).

Legend:
[1] = tested on: experimental asthma model (airway resistance); assay: Effect on experimental asthma model in guinea pigs (airway resistance); assay type: in vivo, guinea pigs (male hartley); conditions: 50 mg/kg oral (TABLE 6)
[2] = tested on: contact dermatitis induced by picryl chloride; assay: Effect on contact dermatitis induced by picryl chloride in mice; assay type: in vivo; conditions: 50 mg/kg oral, 1 hour before and 16 hours after challenge; 24 hours after challenge
In short: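 Mice sensitized on shaved abdomen with 7 mg picryl chloride in acetone, challenged 7 days later with 1% picryl chloride in olive oil on left ear. Compounds given orally at 50 mg/kg in 0.5% CMCNa 1 h before and 16 h after challenge. Ear thickness increase at 24 h vs pre-challenge; inhibition % relative to vehicle.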

[3] = tested on: homologous passive cutaneous anaphylaxis (PCA) reaction; assay: Effect on homologous passive cutaneous anaphylaxis (PCA) reaction in rats; assay type: in vivo, rats (male wistar); conditions: 50 mg/kg oral, 1 hour before challenge (TABLE 2)
In short: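 Male Wistar rats sensitized intradermally with anti-DNP-As serum; 48 h later compound given orally at 50 mg/kg in 0.5% CMCNa. Challenge 1 h post-dose with i.v. TNP-As plus Evans Blue; extravasated dye measured at 30 min, inhibition versus vehicle group, n=5.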

Row | SMILES | Inhibition (%) of the airway resistance [1] | Inhibition (%) against the increase of ear thickness [2] | Inhibition (%) of PCA reaction [3]
1 | C=COc1c(O)c(=O)oc2cc(O[C@@H]3O[C@H](CO)[C@@H](O)[C@H](O)[C@H]3O)ccc12 [compound 158] | 42.3% | 48.2% | 44.3%
2 | CC(C)=CCC/C(C)=C/COc1c(O)c(=O)oc2cc(O[C@@H]3O[C@H](CO)[C@@H](O)[C@H](O)[C@H]3O)ccc12 [compound 160] | 58.9% | 46.7% | 43.9%
